Each block holds one molecule with its values, some of them ahead of it. The source made the active and inactive calls. The rule behind the calls is not given here.
Experiments:
[1] = Drug uptake in male Sprague-Dawley rat Dorsal skin assessed as retention rat at 1 mg/ml, TOP measured after 30 mins by LC-MS/MS analysis; format: ADME, tissue-based, Zone of skin; conditions: in vivo, topical_or_ocular, 0.5 h
[2] = test system: Human dermal papilla cell; assay: Downregulation of AR protein expression in human dermal papilla cells at 1 uM preincubated with testosterone for 24 hrs followed by compound addition and measured after 48 hrs by Western blot analysis; format: functional, cell-based
[3] = test system: Human dermal papilla cell; assay: Upregulation of beta-catenin level in human dermal papilla cells at 1 uM preincubated with testosterone for 24 hrs followed by compound addition and measured after 48 hrs by Western blot analysis; format: functional, cell-based
[4] = test system: Human dermal papilla cell; assay: Downregulation of TGF-beta1 expression level in human dermal papilla cells at 1 uM preincubated with testosterone for 24 hrs followed by compound addition and measured after 48 hrs by Western blot analysis; format: functional, cell-based
[5] = Inhibition of TGF-beta1 release in human dermal papilla cells assessed as TGF-beta1 concentration at 1 uM preincubated with testosterone for 24 hrs followed by compound addition and measured after 48 hrs by ELISA; format: functional, Human dermal papilla cell
[6] = target: Protein cereblon/Androgen receptor (Homo sapiens, UniProt P10275+Q96SW2); assay: PROTAC activity at CRBN/AR in human dermal papilla cell assessed as induction of AR degradation measured after 24 to 72 hrs by Western blot analysis; format: cell-based
Mus musculus [7] = assay: Hair regeneration efficacy in testosterone induced male C57BL/6 mouse androgenetic alopecia model at 5 %, TOP administered once daily for 14 days and measured after 21 days with co-administration of 0.2% testosterone for 28 days by photographic analysis; format: functional, organism-based; conditions: time 21.0 day
Mus musculus [8] = assay: Hair regeneration efficacy in testosterone induced male C57BL/6 mouse androgenetic alopecia model earlier pigmentation at 5 %, TOP administered once daily for 14 days and measured after 21 days with co-administration of 0.2% testosterone for 28 days by photographic analysis; format: functional, organism-based; conditions: time 14.0 day
Mus musculus [9] = assay: In vivo induction of AR degradation in testosterone induced male C57BL/6 mouse androgenetic alopecia model assessed as decrease in AR protein level in skin at […] TOP administered once daily for 14 days with co-administration of 0.2% testosterone for 28 days by Western blot analysis; format: functional, organism-based; conditions: time 14.0 day
Mus musculus [10] = assay: Hair regeneration efficacy in testosterone induced male C57BL/6 mouse androgenetic alopecia model assessed as generation of thick hair with intact scales at 5 %, TOP administered once daily for 14 days with co-administration of 0.2% testosterone and measured after 28 days by SEM analysis; format: functional, organism-based; conditions: time 28.0 day
Mus musculus [11] = assay: Hair regeneration efficacy in testosterone induced male C57BL/6 mouse androgenetic alopecia model assessed as well formed stratum corneum in hair at 5 %, TOP administered once daily for 14 days with co-administration of 0.2% testosterone and measured after 28 days by SEM analysis; format: functional, organism-based; conditions: time 28.0 day
Mus musculus [12] = assay: Hair regeneration efficacy in testosterone induced male C57BL/6 mouse androgenetic alopecia model assessed as entry of hair follicles to anagen phase by measuring high density of enlarged hair bulbs in subcutaneous tissue at 5 %, TOP administered once daily for 14 days with co-administration of 0.2% testosterone for 28 days by H and E staining based analysis; format: functional, organism-based; conditions: time 14.0 day
Mus musculus [13] = assay: Hair regeneration efficacy in testosterone induced male C57BL/6 mouse androgenetic alopecia model assessed as increase in hair cycle score at 5 %, TOP administered once daily for 14 days with co-administration of 0.2% testosterone for 28 days; format: functional, organism-based; conditions: time 14.0 day
Mus musculus [14] = assay: Hair regeneration efficacy in testosterone induced male C57BL/6 mouse androgenetic alopecia model assessed as increase in Ki67 expression in skin at 5 % TOP administered once daily for 14 days with co-administration of 0.2% testosterone for 28 days by DAPI staining based immunofluorescence analysis; format: functional, organism-based; conditions: time 14.0 day

Protein cereblon/Androgen receptor, sequence (P10275 whole entry): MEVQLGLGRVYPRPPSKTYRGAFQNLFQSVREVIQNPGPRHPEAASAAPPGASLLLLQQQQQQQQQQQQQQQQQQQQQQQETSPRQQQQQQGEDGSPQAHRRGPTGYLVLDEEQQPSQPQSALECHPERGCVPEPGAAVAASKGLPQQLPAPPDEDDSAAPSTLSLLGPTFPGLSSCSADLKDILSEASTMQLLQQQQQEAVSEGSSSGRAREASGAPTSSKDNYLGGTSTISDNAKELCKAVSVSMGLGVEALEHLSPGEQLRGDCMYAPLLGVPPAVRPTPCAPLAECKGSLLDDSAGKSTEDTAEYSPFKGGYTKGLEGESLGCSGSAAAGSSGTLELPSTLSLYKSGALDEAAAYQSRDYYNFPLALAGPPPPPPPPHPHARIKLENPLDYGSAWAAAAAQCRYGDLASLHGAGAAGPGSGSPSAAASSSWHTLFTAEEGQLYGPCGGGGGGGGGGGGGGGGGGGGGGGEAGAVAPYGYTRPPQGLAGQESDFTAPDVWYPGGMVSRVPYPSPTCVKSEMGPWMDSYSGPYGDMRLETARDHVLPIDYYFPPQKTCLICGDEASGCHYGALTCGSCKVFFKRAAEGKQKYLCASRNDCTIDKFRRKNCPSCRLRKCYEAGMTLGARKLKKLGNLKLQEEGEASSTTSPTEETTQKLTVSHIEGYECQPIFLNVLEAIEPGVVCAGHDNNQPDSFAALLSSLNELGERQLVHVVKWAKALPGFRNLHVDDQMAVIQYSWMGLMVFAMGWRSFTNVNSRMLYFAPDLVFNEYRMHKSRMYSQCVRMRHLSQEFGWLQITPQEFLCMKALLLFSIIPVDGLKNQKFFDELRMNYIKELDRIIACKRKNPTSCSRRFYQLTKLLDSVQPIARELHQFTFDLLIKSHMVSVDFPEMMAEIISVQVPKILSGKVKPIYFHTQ
Protein cereblon/Androgen receptor, sequence (Q96SW2 whole entry): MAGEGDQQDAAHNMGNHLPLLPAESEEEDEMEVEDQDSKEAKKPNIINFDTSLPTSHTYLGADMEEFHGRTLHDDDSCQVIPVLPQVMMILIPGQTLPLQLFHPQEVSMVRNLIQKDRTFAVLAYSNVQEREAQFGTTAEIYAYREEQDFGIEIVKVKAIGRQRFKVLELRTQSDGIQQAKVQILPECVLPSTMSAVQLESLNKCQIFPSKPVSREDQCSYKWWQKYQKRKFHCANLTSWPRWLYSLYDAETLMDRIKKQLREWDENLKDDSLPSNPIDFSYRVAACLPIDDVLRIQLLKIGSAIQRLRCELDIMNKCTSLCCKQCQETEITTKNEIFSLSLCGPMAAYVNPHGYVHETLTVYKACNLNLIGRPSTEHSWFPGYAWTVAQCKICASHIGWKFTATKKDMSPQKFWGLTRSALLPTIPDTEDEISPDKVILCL

Drug uptake [1]: 8.45%
SMILES: O=C1CCC(N2C(=O)c3ccc(N4CC(CN5CCC(c6ccc(C(F)(F)F)cc6)CC5)C4)cc3C2=O)C(=O)N1 (stereo not given)

Drug uptake [1]: 0.62% | DC50 [6]: 207 nM
SMILES: N#Cc1ccc(O[C@H]2CC[C@H](NC(=O)c3ccc(N4CCC(CN5CCN(c6ccc7c(c6)C(=O)N(C6CCC(=O)NC6=O)C7=O)CC5)CC4)cc3)CC2)cc1Cl (stereo not given in full)

Drug uptake [1]: 4.99%
SMILES: O=C1CCC(NC(=O)c2ccc(N3CCN(CC4CCN(c5ccc(F)cc5)CC4)CC3)cc2)C(=O)N1 (stereo not given)

Drug uptake [1]: 0.68%
SMILES: O=C1CCC(N2C(=O)c3ccc(N4CCC(CN5CCN(c6ccc(C(F)(F)F)cc6)CC5)C4)cc3C2=O)C(=O)N1 (stereo not given)

Drug uptake [1]: 0.69%
SMILES: N#Cc1ccc(O[C@H]2CC[C@H](NC(=O)c3ccc(N4CCN(CC5CCN(c6ccc7c(c6)C(=O)N(C6CCC(=O)NC6=O)C7=O)CC5)CC4)cc3)CC2)cc1Cl (stereo not given in full)

Drug uptake [1]: 0.96%
SMILES: O=C1CCC(N2C(=O)c3cccc(N4CCC(CN5CCN(c6ccc(C(F)(F)F)cc6)CC5)C4)c3C2=O)C(=O)N1 (stereo not given)

Drug uptake [1]: 5.75%
SMILES: O=C1CCC(N2C(=O)c3ccc(N4CCCC(CN5CCC(c6ccc(C(F)(F)F)cc6)CC5)C4)cc3C2=O)C(=O)N1 (stereo not given)

Drug uptake [1]: 5.84%
SMILES: O=C1CCC(N2C(=O)c3ccc(N4CC(N5CCN(c6ccc(C(F)(F)F)cc6)CC5)C4)cc3C2=O)C(=O)N1 (stereo not given)

Drug uptake [1]: 2.22%
SMILES: O=C1CCC(N2C(=O)c3cc(F)c(N4CC(CN5CCC(c6ccc(C(F)(F)F)cc6)CC5)C4)cc3C2=O)C(=O)N1 (stereo not given)

Drug uptake [1]: 8.73%
SMILES: O=C1CCC(N2C(=O)c3ccc(N4CCN(CC5CCN(c6ccc(C(F)(F)F)cc6)CC5)CC4)cc3C2=O)C(=O)N1 (stereo not given)

Drug uptake [1]: 0.74% | DC50 [6]: > 1000 nM
SMILES: N#Cc1ccc(O[C@H]2CC[C@H](NC(=O)c3ccc(N4CCN(CC5CCN(c6ccc7c(c6)C(=O)N(C6CCC(=O)NC6=O)C7=O)C5)CC4)cc3)CC2)cc1Cl (stereo not given in full)

Drug uptake [1]: 1.94%
SMILES: O=C1CCC(N2C(=O)c3ccc(N4CCC(CN5CCC(c6ccc(C(F)(F)F)cc6)CC5)C4)cc3C2=O)C(=O)N1 (stereo not given)

Drug uptake [1]: 2.48%
SMILES: O=C1CCC(N2Cc3cc(C#CCN4CCN(c5ccc(C(F)(F)F)cc5)CC4)ccc3C2=O)C(=O)N1 (stereo not given)

Drug uptake [1]: 4.34%
SMILES: O=C1CCC(N2C(=O)c3cccc(NC4CCN(CC5CCN(c6ccc(C(F)(F)F)cc6)CC5)CC4)c3C2=O)C(=O)N1 (stereo not given)

The next lines start with the molecule.

SMILES: O=C1CCC(NC(=O)c2ccc(N3CCN(C4CCN(c5ccc(F)cc5)CC4)CC3)cc2)C(=O)N1 (stereo not given)
Drug uptake [1]: 9.12%

SMILES: CNC(=O)c1ccc(N2C(=S)N(c3ccc(C#N)c(C(F)(F)F)c3)C(=O)C2(C)C)cc1F [ENZALUTAMIDE]
Activity [2]: inactive | Activity [3]: Active | Activity [4]: Active | Activity [5]: 1195 pg/mL

SMILES: N#Cc1ccc(O[C@H]2CC[C@H](NC(=O)c3ccc(C4CCN(CC5CN(c6ccc(C(=O)NC7CCC(=O)NC7=O)cc6)C5)CC4)cc3)CC2)cc1Cl (stereo not given in full)
Drug uptake [1]: 1.23% | DC50 [6]: 70.9 nM

SMILES: N#Cc1ccc(O[C@H]2CC[C@H](NC(=O)c3ccc(N4CCC(CCN5CCN(c6ccc(C(=O)NC7CCC(=O)NC7=O)cc6)CC5)CC4)cc3)CC2)cc1Cl (stereo not given in full)
Drug uptake [1]: 1% | DC50 [6]: > 1000 nM

SMILES: N#Cc1ccc(O[C@H]2CC[C@H](NC(=O)c3ccc(N4CCC(N5CCN(c6ccc(C(=O)NC7CCC(=O)NC7=O)cc6)CC5)CC4)cc3)CC2)cc1Cl (stereo not given in full)
Drug uptake [1]: 1.31% | DC50 [6]: 104 nM

SMILES: N#Cc1ccc(O[C@H]2CC[C@H](NC(=O)c3ccc(CCCCN4CCN(c5ccc(C(=O)NC6CCC(=O)NC6=O)cc5)CC4)cc3)CC2)cc1Cl (stereo not given in full)
Drug uptake [1]: 1.49% | DC50 [6]: > 1000 nM

SMILES: O=C1CCC(N2Cc3c(OCC#CCN4CCN(CC#Cc5ccc(C(F)(F)F)cc5)CC4)cccc3C2=O)C(=O)N1 (stereo not given)
Drug uptake [1]: 1.91%

SMILES: N#Cc1ccc(O[C@H]2CC[C@H](NC(=O)c3ccc(N4CCC(CN5CCN(c6ccc(C(=O)NC7CCC(=O)NC7=O)cc6)CC5)CC4)cc3)CC2)cc1Cl (stereo not given in full)
Drug uptake [1]: 0.81% | DC50 [6]: > 1000 nM

SMILES: Nc1cc(N2CCCCC2)nc(N)[n+]1[O-] [MINOXIDIL]
Activity [2]: inactive | Activity [3]: Active | Activity [4]: Active | Activity [5]: 952.22 pg/mL | Activity (Mus musculus [7]): Active | Activity (Mus musculus [8]): Active | Activity (Mus musculus [9]): inactive | Activity (Mus musculus [10]): Active | Activity (Mus musculus [11]): Active | Activity (Mus musculus [12]): Active | Activity (Mus musculus [13]): Active | Activity (Mus musculus [14]): Active

SMILES: O=C1CCC(N2Cc3cc(OCC#CCN4CCN(CC#Cc5ccc(C(F)(F)F)cc5)CC4)ccc3C2=O)C(=O)N1 (stereo not given)
Drug uptake [1]: 5.41%

SMILES: N#Cc1ccc(O[C@H]2CC[C@H](NC(=O)c3ccc(N4CCN(CC5CCN(c6ccc(C(=O)NC7CCC(=O)NC7=O)cc6)C5)CC4)cc3)CC2)cc1Cl (stereo not given in full)
Drug uptake [1]: 1.86% | DC50 [6]: > 1000 nM

SMILES: O=C1CCC(NC(=O)c2ccc(N3CCN(CCC4CCN(c5ccc(F)cc5)CC4)CC3)cc2)C(=O)N1 (stereo not given)
Drug uptake [1]: 3.92%

SMILES: N#Cc1ccc(O[C@H]2CC[C@H](NC(=O)c3ccc(C4CCN(CC5CCCN(c6ccc7c(c6)C(=O)N(C6CCC(=O)NC6=O)C7=O)C5)CC4)cc3)CC2)cc1Cl (stereo not given in full)
Drug uptake [1]: 0.58% | DC50 [6]: > 1000 nM

SMILES: N#Cc1ccc(O[C@H]2CC[C@H](NC(=O)c3ccc(C4CCN(CC5CN(c6ccc7c(c6)C(=O)N(C6CCC(=O)NC6=O)C7=O)C5)CC4)cc3)CC2)cc1Cl (stereo not given in full)
Drug uptake [1]: 0.6% | DC50 [6]: > 1000 nM

SMILES: O=C1CCC(NC(=O)c2ccc(N3CCN(CCCCc4ccc(F)cc4)CC3)cc2)C(=O)N1 (stereo not given)
Drug uptake [1]: 6.93%

SMILES: N#Cc1ccc(O[C@H]2CC[C@H](NC(=O)c3ccc(N4CCN(C5CN(c6ccc7c(c6)C(=O)N(C6CCC(=O)NC6=O)C7=O)C5)CC4)cc3)CC2)cc1Cl (stereo not given in full)
Drug uptake [1]: 1.41% | DC50 [6]: > 1000 nM

Source: ChEMBL document CHEMBL6078684, “Discovery of a Novel Non-invasive AR PROTAC Degrader for the Topical Treatment of Androgenetic Alopecia” (J Med Chem, 2024)
